Columns and labels:
Assay type in all cases: cell-based
[1] = test system: Escherichia coli NCIMB 14067; assay: In vitro direct inoculation method, comparative test
Protocol: (§1) An in vitro direct inoculation method was used to assess the antimicrobial activity of sulfanilamide in an intermittent urinary catheter scenario against […] Escherichia coli NCIMB 14067 and […] Enterococcus faecalis NCTC 12201; two microorganisms associated with urinary tract infections. Sulfanilamide concentrations of 0.1% and 0.01% were tested and bacterial levels monitored over a period of 5 minutes.
(§2) Representative colonies of the challenge microorganisms, from an 18-24 hour challenge culture plate, were dispersed in MRD to obtain an optical density (OD540 nm) equivalent to approximately 1×10^8 CFU/mL. This was diluted to obtain a working concentration of 1×10^6 CFU/mL. A quantitative count was performed to confirm the inoculum level.
(§3) The challenge organism was prepared in MRD to a concentration of approximately 1×10^6 CFU/mL. This suspension was added in a 1 mL volume to 9 mL of sample (n=3 per sample, n=2 per control) in a sterile 30 mL universal and pipetted up and down to mix. Following each testing period, 5 seconds, 30 seconds, 1 minute, 2 minutes and 5 minutes, 100 μL of the test solution was transferred to 0.9 mL and 9.9 mL volumes of DENB (1:10 and 1:100 dilutions respectively). The most appropriate dilutions were inoculated (100 μL) onto duplicate pre-dried (tryptone soy agar) TSA plates and the inoculum spread using separate sterile L-shaped spreaders (for 10^−1 and 10^−2 dilutions, 0.5 mL were placed onto duplicate plates). The TSA plates were allowed to dry before being inverted and incubated at 35±3° C. for at least 48 hours. Following the incubation period, the number of bacterial colonies were counted on the most appropriate dilution for each dressing type i.e. between 25-250 CFU/plate.
(§4) The samples tested were: 0.1% sulfanilamide in sterile deionised water (SDW); 0.01% sulfanilamide in SDW; 100 ppm hypochlorous acid in SDW; and a SDW control.

[2] = test system: Enterococcus faecalis NCTC 12201; assay: as above
Protocol: as §1, §2, §3, §4

[3] = test system: S. aureus; assay: Rate of kill assessment against repeat inoculation, catheter submerged in medium; conditions: within 5 seconds following inoculation; repeat inoculation up to 24 hours
Protocol: (§5) To assess the sterilisation potential of the medium of the invention, a microbiology assessment was conducted which consisted of rate of kill assessments against repeat inoculation of E. coli and E. faecalis. These organisms were selected as they are commonly identified in catheter associated urinary tract infections. The selection also covers both gram-positive and gram-negative species to test the broad spectrum antimicrobial performance of the medium of the invention.
(§6) Intermittent urinary catheters, as used for Example 1, were provided and submerged in an aqueous medium comprising sodium hypochlorite and sodium chloride. The media comprising the catheters were respectively inoculated with the two microorganisms.
(§7) A direct inoculation method was applied against each microorganism. The test organisms were reinoculated following 1, 2, 3, 4, 5, 6, and 24 hours. Following each inoculation, a sample was taken after 5 seconds, 1, 5, 10 and 15 minutes to evaluate the rate of kill.
(§8) A microbiology assessment was performed using a medium of the invention comprising hypochlorous acid in an analogous manner to that performed for Example 2. However, for this test, following each inoculation, a sample was only taken after 5 seconds to evaluate the rate of kill. Further, in addition to the previous microorganisms tested, a further gram-positive organism, S. aureus, was tested.

[4] = test system: E. faecalis; assay: as above; conditions: for reduction in the microbial colony forming unit (CFU) counts: reinoculation at 24 hours; for time up to which rapid kill was observed: within 5 seconds following inoculation, repeat inoculation up to 24 hours
Protocol: as §5, §6, §7, §8
(§9) To evaluate the antimicrobial activity further, the test was repeated using the same frequency of inoculation, but with sampling performed up to 5 minutes after reinoculation at 24 hours. Even for the most challenging organism, E. faecalis, a reduction in the microbial colony forming unit (CFU) counts of over 3 orders of magnitude was observed after 5 minutes of inoculation.
(§10) A microbiology assessment was performed using the media of the invention comprising hypochlorous acid in an analogous manner to that performed for Example 2. However, for this test, following each inoculation, samples were taken after 5 seconds, 30 seconds, 1, 2, and 5 minutes to evaluate the rate of kill.

[5] = test system: E. coli; assay: as above; conditions: for time up to which highly effective kill was observed: all time periods post-inoculation; for time up to which rapid kill was observed: within 5 seconds following inoculation, repeat inoculation up to 24 hours
Protocol: as §5, §6, §7, §8, §9, §10

[6] = test system: E. coli NCIMB 14067; assay: Antimicrobial efficacy at very low concentrations, total viable counts; conditions: for numbers of bacteria: after 30 seconds, approximately 1×10^5 CFU/mL inoculated
Protocol: The antimicrobial efficacy of hypochlorous acid was tested at even lower concentrations (10, 25, and 50 ppm) against the challenging organism E. coli NCIMB 14067.
The representative colonies of E. coli NCIMB 14067 were dispersed in maximum recovery diluent (MRD) to obtain an optical density (OD540 nm) equivalent to approximately 1×10^6 CFU/mL. A quantitative plate count was performed on this suspension to determine the total number of viable organisms inoculated. A new suspension was prepared for each concentration tested.
A 1000 ppm hypochlorous acid solution was diluted in sterile deionised water to provide the respective 10, 25 and 50 ppm hypochlorous acid solutions.
The hypochlorous acid samples were aliquoted into 9 mL volumes and 1 mL of the challenge organism suspension was added and mixed (the final number of bacteria present is now approximately 1×10^5 CFU/mL). Following 5, 30 seconds, 1, 2, and 5 minutes, 100 μL volumes were sampled and transferred to 0.9 mL and 9.9 mL of Dey-Engley Neutralising Broth (DENB) (to provide a 1:10 and 1:100 dilution respectively), and total viable counts were performed to establish the amount present. The plates were left to dry before being inverted and incubated at 35±3° C. for at least 48 hours. A negative control was also tested whereby 1 mL of the challenge organism suspension was added to 9 mL of MRD and tested as previously described. Following the incubation period, the number of CFUs were counted on the most appropriate dilution for each sample i.e. between 25-250 CFU/plate.

[7] = 0.1% and 0.01% in SDW, any timepoint, 5 seconds to 5 minutes
[8] = 100 ppm in SDW, within 5 seconds and for the remaining testing period (5 minutes)
[9] = 675 ppm, 30 seconds after sampling
[10] = each concentration tested (250, 675, 1000, 2000 ppm), after 5 minutes of sampling

SMILES: Nc1ccc(S(N)(=O)=O)cc1 [sulfanilamide, reference compound]
- change in challenge organism numbers compared to the control [1, 7]: no decrease
- change in challenge organism numbers compared to the control [2, 7]: no decrease

SMILES: OCl [hypochlorous acid]
- time up to which rapid kill was observed [3]: up to 6 hours
- numbers of challenge organism [1, 8]: undetectable numbers
- numbers of challenge organism [2, 8]: undetectable numbers
- time up to which highly effective kill was observed ([4]; 250 ppm, 30 seconds post-inoculation): Up to 5 hours
- time up to which highly effective kill was observed ([4]; 250 ppm, all time periods post-inoculation): up to 4 hours
- time up to which effective kill was observed [4, 9]: up to 24 hours
- time up to which highly effective kill was observed ([4]; 675 ppm, all time periods post-inoculation): up to 6 hours
- time up to which highly effective kill was observed ([4]; 675 ppm, from 30 seconds post-inoculation): up to 24 hours
- time up to which highly effective kill was observed ([4]; 1000 ppm, all time periods post-inoculation): up to 24 hours
- reduction in the microbial colony forming unit (CFU) counts ([4]; after 5 minutes of inoculation): over 3 orders of magnitude
- time up to which effective kill was found [4, 10]: up to 24 hours
- time up to which rapid kill was observed [4]: up to 6 hours
- time up to which highly effective kill was observed ([5]; 250 ppm): up to 5 hours
- time up to which highly effective kill was observed ([5]; 675 ppm and above): up to 24 hours
- time up to which effective kill was observed [5, 9]: up to 24 hours
- time up to which effective kill was found [5, 10]: up to 24 hours
- time up to which rapid kill was observed [5]: up to 24 hours
- numbers of bacteria ([6]; 25 ppm): undetectable numbers
- numbers of bacteria ([6]; 50 ppm): undetectable numbers
- CFU/mL of negative control (MRD) larger than for the samples by ([6]; all concentrations (10, 25, 50 ppm) and time points tested): over 4 orders of magnitude

SMILES: [O][Cl+][O-] [chlorine dioxide]
- time up to which rapid kill was observed [3]: up to 6 hours
- reduction in the microbial colony forming unit (CFU) counts ([4]; after around 30 seconds of inoculation): 4 orders of magnitude
- time up to which rapid kill was observed [4]: up to 6 hours
- time up to which rapid kill was observed [5]: up to 24 hours

— US20250332378A1, “CATHETERS” (ConvaTec Limited, priority 2023, published 2025)
